Data taken from BindingDB's records for doi:10.1021/jm00064a006 (Eli Lilly, 1993).

Assay: The antagonist activity measured as inhibition of LTB4 response in aggregation of neutrophils

## CCCCCCCCCCOc1ccc2c(=O)c3cc(C(=O)O)ccc3oc2c1CCC(=O)O [5-(2-Carboxy-ethyl)-6-decyloxy-9-oxo-9H-xanthene-2-carboxylic acid]
  IC50: 513 nM

## COc1ccc(/C=C/CCCCOc2ccc3c(=O)c4cc(C(=O)O)ccc4oc3c2CCC(=O)O)cc1 [LY-210073]
  IC50: 133 nM
